Key:
Raji = assay: Cytotoxicity against Raji cells assessed as cell viability at 32 nmol relative to control; type: functional, Homo sapiens
Human gammaherpesvirus 4 [1] = assay: Inhibition of TPA-induced Epstein-Barr virus early antigen activation in Raji cells at 3.2 nmol relative to control; values are per cent of control
Human gammaherpesvirus 4 [2] = assay: Inhibition of TPA-induced Epstein-Barr virus early antigen activation in Raji cells at 16 nmol relative to control; values are per cent of control
Human gammaherpesvirus 4 [3] = assay: Inhibition of TPA-induced Epstein-Barr virus early antigen activation in Raji cells at 0.32 nmol relative to control; values are per cent of control
Human gammaherpesvirus 4 [4] = assay: Inhibition of TPA-induced Epstein-Barr virus early antigen activation in Raji cells at 32 nmol relative to control; values are per cent of control

| Compound | Activity (Raji) [%] | level, % of control (Human gammaherpesvirus 4 [1]) [%] | level, % of control (Human gammaherpesvirus 4 [2]) [%] | level, % of control (Human gammaherpesvirus 4 [3]) [%] | level, % of control (Human gammaherpesvirus 4 [4]) [%] |
| --- | --- | --- | --- | --- | --- |
| Cc1nc2cc(N3C(=O)CSC3c3cccc4ccccc34)ccc2[nH]1 (stereo not given) | 60 | 85.1 | 61 | 100 | 17.1 |
| Cc1nc2cc([N+](=O)[O-])ccc2n1Cc1ccccc1 | 60 | 87.4 | 62.4 | 100 | 18.3 |
| Cc1nc2cc(N3C(=O)CSC3c3ccc4c(c3)OCO4)ccc2[nH]1 (stereo not given) | 60 | 88.4 | 65 | 100 | 21.6 |
| Cc1nc2cc(N3C(=O)CSC3c3cccs3)ccc2[nH]1 (stereo not given) | 60 | 88.9 | 66.5 | 100 | 22.1 |
| Cc1nc2cc(/N=C\c3ccc(C)o3)ccc2[nH]1 | 60 | 86.2 | 62 | 100 | 18 |
| Cc1nc2cc(/N=C\c3ccc4c(c3)OCO4)ccc2[nH]1 | 60 | 85.4 | 60.2 | 100 | 15.1 |
| CNC(=S)Nc1ccc2c(c1)nc(C)n2Cc1ccccc1 | 60 | 80 | 58.1 | 100 | 13.2 |
| CCNC(=S)Nc1ccc2c(c1)nc(C)n2Cc1ccccc1 | 60 | 81.2 | 59.6 | 100 | 14 |
| Cc1nc2cc(NC(=S)NC(=O)c3ccccc3)ccc2n1Cc1ccccc1 | 60 | 82 | 60.6 | 100 | 17.8 |
| COc1ccc(NC(=S)Nc2ccc3c(c2)nc(C)n3Cc2ccccc2)cc1 | 60 | 78.3 | 53.1 | 100 | 13.5 |
| CCN1C(=O)CS/C1=N/c1ccc2c(c1)nc(C)n2Cc1ccccc1 | 60 | 81.1 | 54.2 | 100 | 18.3 |
| Cc1nc2cc(/N=C\c3c[nH]c4ccccc34)ccc2[nH]1 | 60 | 86.1 | 62.1 | 100 | 18.4 |
| Cc1nc2cc(/N=C\c3cccc4ccccc34)ccc2[nH]1 | 60 | 89.6 | 65.8 | 100 | 20.6 |
| Cc1nc2cc(/N=C3/SCC(=O)N3C(=O)c3ccccc3)ccc2n1Cc1ccccc1 | 60 | 82.5 | 52.5 | 100 | 12.3 |
| COc1ccc(N2C(=O)CS/C2=N/c2ccc3c(c2)nc(C)n3Cc2ccccc2)cc1 | 60 | 78 | 53 | 100 | 13.2 |
| Cc1nc2ccccc2[nH]1 | 60 | 88.3 | 63.6 | 100 | 19.6 |
| Cc1nc2cc([N+](=O)[O-])ccc2[nH]1 | 60 | 88 | 62.5 | 100 | 18.4 |
| Cc1ccc(C2SCC(=O)N2c2ccc3[nH]c(C)nc3c2)cc1 (stereo not given) | 60 | 88.9 | 66.1 | 100 | 23.1 |
| Cc1nc2cc(/N=C3/SCC(=O)N3C)ccc2n1Cc1ccccc1 | 60 | 83.4 | 61.2 | 100 | 20.7 |
| Cc1nc2cc(N3C(=O)CSC3c3ccc(C)o3)ccc2[nH]1 (stereo not given) | 60 | 87.7 | 65.1 | 100 | 20.9 |
| Cc1nc2cc(N3C(=O)CSC3c3c[nH]c4ccccc34)ccc2[nH]1 (stereo not given) | 60 | 87.1 | 65.9 | 100 | 21.8 |
| Cc1nc2cc(/N=C3/SCC(=O)N3c3ccccc3)ccc2n1Cc1ccccc1 | 60 | 82.5 | 61 | 100 | 19.4 |
| Cc1nc2cc(NC(=S)Nc3ccccc3)ccc2n1Cc1ccccc1 | 60 | 83.1 | 60.2 | 100 | 15.3 |
| Cc1ccc(/C=N\c2ccc3[nH]c(C)nc3c2)cc1 | 60 | 89.1 | 64.5 | 100 | 19.3 |
| Cc1nc2cc(/N=C\c3cccs3)ccc2[nH]1 | 60 | 89.1 | 65.5 | 100 | 22 |
| Cc1nc2cc(N)ccc2[nH]1.Cl | 60 | 88.9 | 64.3 | 100 | 20.3 |
| Cc1nc2cc(N)ccc2n1Cc1ccccc1.Cl | 60 | 86.3 | 62.2 | 100 | 18.5 |
